From patent US20170105979A1, “USE OF A TORASEMIDE-BASED VETERINARY COMPOSITION FOR LOW-DOSE ADMINISTERING” (VIRBAC, priority 2014, published 2017)
Read-outs that look alike come from different tables or passages of the source.

Key:
[1] = cited from earlier work
[2] = prolonged treatments of 14 days; torasemide 0.4 mg/kg/day; cited from earlier work
[3] = single administration, healthy rats and dogs; cited from earlier work
[4] = water consumption over 24 h in treated healthy dogs; type: in vivo, female Beagle dogs; settings: FIG. 4
Method: (§1) Several criteria were evaluated in order to determine the efficacy of this dosage: • urine volume • water consumption • urinary sodium clearance • urinary potassium clearance • osmolar clearance • free-water clearance • urinary fraction excretion of sodium • urinary fraction excretion of potassium. […] The following measurements are carried out: • →urine: volume, pH, creatinine, osmolarity, sodium, potassium; • →plasma: sodium, potassium, urea, aldosterone.

[5] = urine volume over 24 h in treated healthy dogs; type: in vivo, female Beagle dogs; settings: FIG. 3
Method: as §1

[6] = 7 days, cited from earlier work; for clinical state of the disease: furosemide 5.13 mg/kg/day or torasemide 0.5 mg/kg/day, oral twice-daily
[7] = urinary sodium clearance in healthy female Beagle dogs; type: in vivo
Method: Several criteria were evaluated in order to determine the efficacy of this dosage: • urine volume • water consumption • urinary sodium clearance • urinary potassium clearance • osmolar clearance • free-water clearance • urinary fraction excretion of sodium • urinary fraction excretion of potassium. […] The following measurements are carried out: • →urine: volume, pH, creatinine, osmolarity, sodium, potassium; • →plasma: sodium, potassium, urea, aldosterone. In this experiment, torasemide is tested at two single doses: 0.05 mg/kg or 0.5 mg/kg for a daily administration for three weeks. The continuous administration of diuretics causes a net deficit of sodium ions in the body, but renal compensation mechanisms adjust sodium excretion in line with sodium intake. This phenomenon is known as “diuretic braking”. […] In the experimental studies described above, carried out on healthy dogs, the modification of urinary sodium excretion by torasemide is evaluated by calculating urinary sodium clearance according to the following equation: Urinary sodium concentration×total urine volume/plasma sodium concentration

[8] = urinary potassium clearance in treated healthy dogs; type: in vivo, female Beagle dogs; settings: first day of treatment, low-dose torasemide compared with other treatments; FIG. 5
Method: as §1, with “aldosterone. The excretion of potassium ions in the urine of the treated dogs was measured over a period of 24 hours, and is presented in FIG. 5.” for “aldosterone.”

[9] = plasma creatinine and creatinine clearance (innocuousness); type: in vivo, female Beagle dogs; settings: torasemide 0.05 mg/kg/day
Method: Other criteria were evaluated in order to determine the safety of this dosage: • plasma creatinine • creatinine clearance • plasma urea • plasma aldosterone. […] The following measurements are carried out: • →urine: volume, pH, creatinine, osmolarity, sodium, potassium; • →plasma: sodium, potassium, urea, aldosterone.

[10] = plasma urea concentration (innocuousness); type: in vivo, female Beagle dogs; settings: FIG. 7
[11] = plasma aldosterone concentration (innocuousness); type: in vivo, female Beagle dogs; settings: FIG. 8
[12] = 0.2 mg/kg/day in the morning for 28 days, dogs with congestive heart failure; cited from earlier work
[13] = urinary fractional excretion of sodium (FENa) in healthy dogs; type: in vivo, female Beagle dogs; settings: single (0.05 or 0.5 mg/kg) and repeated administrations for three weeks; FIGS. 9 and 10
Source text: One of the solutions for making the link between clinical and experimental is the calculation of the fractional excretion of sodium. This value is the ratio of the urinary sodium clearance to the urinary creatinine clearance. It requires assaying the creatinine in the plasma and in the urine, and also assaying the sodium in the plasma and the urine also, which is entirely envisionable “in the field”. This fractional excretion of sodium (FENa) represents the percentage of sodium filtered by the kidney that is finally excreted in the urine. It is determined using equation 1 below: where Naurine and […] are the sodium concentrations in the urine and the plasma, respectively, and Creatinineplasma and Creatinineurine are the creatinine concentrations in the plasma and the urine, respectively. The fractional excretion of sodium is the sodium excretion divided by the glomerular filtration rate (GFR), the GFR being estimated by the creatinine clearance.

[14] = high dose of torasemide (0.5 mg/kg/day), D18 and D28
[15] = low dose of torasemide (0.05 mg/kg/day)

Compound: NS(=O)(=O)c1cc(C(=O)O)c(NCc2ccco2)cc1Cl [furosemide]
- time after administration at which the diuretic effect decreases ([1]; furosemide): 6 h
- time after administration at which the diuretic effect appears ([1]; torasemide 0.2 mg/kg): approximately 1 hours
- diuretic resistance [2]: develop “diuretic resistance”
- dose-effect relationship for diuretic effect and ion secretion [3]: relationship between the dose administered and the size of the diuretic effect and of the ion secretion
- water consumption over a period of 24 h ([4]; furosemide 5 mg/kg/day, especially D18 and D28): clear increase
- urine volume ([5]; furosemide 5 mg/kg/day, from first day (D7), maintained over three weeks): clear increase
- clinical state of the disease [6]: maintain the disease in a stable state

Compound: Cc1cccc(Nc2ccncc2S(=O)(=O)NC(=O)NC(C)C)c1 [torasemide, N-[(isopropyl-amino)carbonyl]-4-[(3-methylphenyl)amino]pyridine-3-sulfonamide]
- potassium excretion in the urine ([1]; sick dogs, after 7 days, compared with furosemide): less than that observed for the dogs treated with furosemide
- persistence of the diuretic effect ([1]; torasemide 0.2 mg/kg): 12 h
- diuretic resistance [2]: this resistance does not occur
- plasma creatinine concentrations [2]: increase in plasma creatinine concentrations
- diuretic braking effect ([7]; dogs in good health, single dose of 0.5 mg/kg): occurs
- net effect over the course of 24 hours on urinary sodium clearance ([7]; repeated administrations, high dose of torasemide 0.5 mg/kg/day, FIG. 2): no net effect
- effect on urinary sodium clearance ([7]; repeated administrations, low dose of torasemide 0.05 mg/kg, D7, D18, D28, FIG. 2): effect that was clearly visible
- overall effect on sodium clearance over the course of 24 hours ([7]; single dose, low dose 0.05 mg/kg compared with high dose 0.5 mg/kg, FIG. 1): higher than the overall effect of the high dose of torasemide (0.5 mg/kg)
- effect on potassium ion excretion in the urine [8]: lower than with the other treatments
- dose-effect relationship for diuretic effect and ion secretion [3]: relationship between the dose administered and the size of the diuretic effect and of the ion secretion
- plasma creatinine concentration ([9]; whatever the day of the sample): no effect
- creatinine clearance ([9]; FIG. 6): no effect
- water consumption over a period of 24 h ([4]; torasemide 0.05 mg/kg/day): only a small change
- water consumption over a period of 24 h ([4]; torasemide 0.5 mg/kg/day, especially D18 and D28): clear increase
- urine volume ([5]; torasemide 0.05 mg/kg/day, D7, D18, D28): do not show any change
- urine volume ([5]; torasemide 0.5 mg/kg/day, from first day (D7), maintained over three weeks): clear increase
- plasma urea concentration [10, 14]: increase
- increase in plasma urea concentration [10, 15]: not observed
- plasma aldosterone concentration [11, 14]: increase
- increase in plasma aldosterone concentration [11, 15]: not observed
- clinical state of the disease [6]: maintain the disease in a stable state
- diuretic effect compared with furosemide ([6]; torasemide 0.5 mg/kg/day vs furosemide 5.13 mg/kg/day): better diuretic effect
- potassium excretion in the urine [12]: increased
- sodium excretion [12]: not increased
- fractional excretion of sodium [13]: in agreement with those obtained by directly measuring the urinary sodium clearance
